# Source: ChEMBL document CHEMBL4340531, “Synthesis and biological evaluation of solithromycin analogs against multidrug resistant pathogens” (Bioorg Med Chem Lett, 2019)
# What was measured:
# Escherichia coli [1] = test: Antibacterial activity against resistant Escherichia coli DK3535 incubated for 20 hrs by broth dilution method; assay type: functional; conditions: DK3535, 20 h
# Escherichia coli [2] = test: Antibacterial activity against resistant Escherichia coli SQ171 incubated for 20 hrs by broth dilution method; assay type: functional; conditions: SQ171, 20 h
# Escherichia coli [3] = test: Antibacterial activity against resistant Escherichia coli DK incubated for 20 hrs by broth dilution method; assay type: functional
# Enterococcus faecium [4] = test: Potency index, ratio of solithromycin MIC to compound MIC for multi drug resistant Enterococcus faecium NCTC 7171; assay type: functional
# Enterococcus faecium [5] = test: Antibacterial activity against multi drug resistant Enterococcus faecium NCTC 7171 incubated for 24 hrs by broth dilution method; assay type: functional; conditions: NCTC 7171, 24 h
# Staphylococcus aureus [6] = test: Antibacterial activity against resistant Staphylococcus aureus UCN17 incubated for 18 hrs by broth dilution method; assay type: functional; conditions: UCN17, 18 h
# Staphylococcus aureus [7] = test: Antibacterial activity against wild type Staphylococcus aureus ATCC 29213 incubated for 18 hrs by broth dilution method; assay type: functional; conditions: ATCC 29213, 18 h
# Escherichia coli [8] = test: Antibacterial activity against resistant Escherichia coli SQ1712058G incubated for 20 hrs by broth dilution method; assay type: functional
# Staphylococcus aureus [9] = test: Antibacterial activity against resistant Staphylococcus aureus UCN14 incubated for 18 hrs by broth dilution method; assay type: functional; conditions: UCN14, 18 h
# Acinetobacter baumannii [10] = test: Antibacterial activity against multi drug resistant Acinetobacter baumannii ATCC 19606 incubated for 24 hrs by broth dilution method; assay type: functional; conditions: ATCC 19606 = CIP 70.34 = JCM 6841, 24 h
# Escherichia coli [11] = test: Antibacterial activity against resistant Escherichia coli DK2058G incubated for 20 hrs by broth dilution method; assay type: functional
# Staphylococcus aureus [12] = test: Antibacterial activity against resistant Staphylococcus aureus UCN18 incubated for 18 hrs by broth dilution method; assay type: functional; conditions: UCN18, 18 h
# Escherichia coli [13] = test: Potency index, ratio of solithromycin MIC to compound MIC for resistant Escherichia coli SQ171; assay type: functional
# Escherichia coli [14] = test: Potency index, ratio of solithromycin MIC to compound MIC for resistant Escherichia coli SQ1712058G; assay type: functional
# [15] = Selectivity index, ratio of CC50 for African green monkey Vero cells to MIC for multi drug resistant Enterococcus faecium NCTC 7171; assay type: toxicity; conditions: read-out: Selectivity Index
# Acinetobacter baumannii [16] = test: Potency index, ratio of solithromycin MIC to compound MIC for multidrug-resistant Acinetobacter baumannii ATCC 19606; assay type: functional, ATCC 19606 = CIP 70.34 = JCM 6841
# [17] = Cytotoxicity against African green monkey Vero cells assessed as reduction in cell viability after 72 hrs by MTS/PMS assay; assay type: cell-based; conditions: chlorocebus sabaeus
# Escherichia coli [18] = test: Potency index, ratio of solithromycin MIC to compound MIC for resistant Escherichia coli DK; assay type: functional
# Escherichia coli [19] = test: Potency index, ratio of solithromycin MIC to compound MIC for resistant Escherichia coli DK3535; assay type: functional
# Staphylococcus aureus [20] = test: Potency index, ratio of solithromycin MIC to compound MIC for wild type Staphylococcus aureus ATCC 29213; assay type: functional
Structure (SMILES),MIC (Escherichia coli [1]) [µg/mL],MIC (Escherichia coli [2]) [µg/mL],MIC (Escherichia coli [3]) [µg/mL],Ratio (Enterococcus faecium [4]),MIC (Enterococcus faecium [5]) [ng/mL],MIC (Staphylococcus aureus [6]) [µg/mL],MIC (Staphylococcus aureus [7]) [µg/mL],MIC (Escherichia coli [8]) [µg/mL],MIC (Staphylococcus aureus [9]) [µg/mL],MIC (Acinetobacter baumannii [10]) [µg/mL],MIC (Escherichia coli [11]) [µg/mL],MIC (Staphylococcus aureus [12]) [µg/mL],Ratio (Escherichia coli [13]),Ratio (Escherichia coli [14]),selectivity ratio [15],Ratio (Acinetobacter baumannii [16]),CC50 at 72 h [17] [µg/mL],Ratio (Escherichia coli [18]),Ratio (Escherichia coli [19]),Ratio (Staphylococcus aureus [20])
CC[C@H]1OC(=O)[C@@](C)(F)C(=O)[C@H](C)[C@@H](O[C@@H]2O[C@H](C)C[C@H](N(C)C)[C@H]2O)[C@](C)(OC)C[C@@H](C)C(=O)[C@H](C)[C@H]2N(CCCCn3cc(COc4ccccc4)nn3)C(=O)O[C@]12C,4,> 32,2,2,12,8,≤ 0.0625,> 32,64,25,4,4,,,,,,,,
CC[C@H]1OC(=O)[C@@](C)(F)C(=O)[C@H](C)[C@@H](O[C@@H]2O[C@H](C)C[C@H](N(C)C)[C@H]2O)[C@](C)(OC)C[C@@H](C)C(=O)[C@H](C)[C@H]2N(CCCCn3cc(-c4ccc(OC)cc4)nn3)C(=O)O[C@]12C,2,64,2,16,1.5,32,≤ 0.0625,> 64,> 128,25,2,32,,,,,,,,
CC[C@H]1OC(=O)[C@@](C)(F)C(=O)[C@H](C)[C@@H](O[C@@H]2O[C@H](C)C[C@H](N(C)C)[C@H]2O)[C@](C)(OC)C[C@@H](C)C(=O)[C@H](C)[C@H]2N(CCCCn3cc(-c4cc(OC)cc([N+](=O)[O-])c4)nn3)C(=O)O[C@]12C,2,16,4,16,1.5,32,≤ 0.0625,8,64,50,2,32,2,4,,,,,,
CC[C@H]1OC(=O)[C@@](C)(F)C(=O)[C@H](C)[C@@H](O[C@@H]2O[C@H](C)C[C@H](N(C)C)[C@H]2O)[C@](C)(OC)C[C@@H](C)C(=O)[C@H](C)[C@H]2N(CCCCn3cc(-c4ccsc4)nn3)C(=O)O[C@]12C,4,8,4,256,0.094,128,0.25,> 64,128,12,4,128,,,270000,2,25,,,
CC[C@H]1OC(=O)[C@@](C)(F)C(=O)[C@H](C)[C@@H](O[C@@H]2O[C@H](C)C[C@H](N(C)C)[C@H]2O)[C@](C)(OC)C[C@@H](C)C(=O)[C@H](C)[C@H]2N(CCCCn3cc(-c4cnc(N)s4)nn3)C(=O)O[C@]12C,1,> 32,2,,24,64,0.25,> 32,64,> 50,1,64,,,,,,,,
CC[C@H]1OC(=O)[C@@](C)(F)C(=O)[C@H](C)[C@@H](O[C@@H]2O[C@H](C)C[C@H](N(C)C)[C@H]2O)[C@](C)(OC)C[C@@H](C)C(=O)[C@H](C)[C@H]2N(CCCCn3cc(-c4cc(O)cc([N+](=O)[O-])c4)nn3)C(=O)O[C@]12C,8,32,0.5,4096,0.0059,4,≤ 0.0625,> 32,16,25,4,8,,,2e+06,,12,4,,
CC[C@H]1OC(=O)[C@@](C)(F)C(=O)[C@H](C)[C@@H](O[C@@H]2O[C@H](C)C[C@H](N(C)C)[C@H]2O)[C@](C)(OC)C[C@@H](C)C(=O)[C@H](C)[C@H]2N(CCCCn3cc(-c4ccc(N)cc4)nn3)C(=O)O[C@]12C,1,16,1,,24,8,≤ 0.031,> 32,16,25,4,16,2,,,,,2,2,
CC[C@H]1OC(=O)[C@@](C)(F)C(=O)[C@H](C)[C@@H](O[C@@H]2O[C@H](C)C[C@H](N(C)C)[C@H]2O)[C@](C)(OC)C[C@@H](C)C(=O)[C@H](C)[C@H]2N(CCCCn3cc(-c4cccs4)nn3)C(=O)O[C@]12C,1,32,2,,49,8,≤ 0.0625,> 64,32,6.5,1,8,,,,4,,,,
CC[C@H]1OC(=O)[C@@](C)(F)C(=O)[C@H](C)[C@@H](O[C@@H]2O[C@H](C)C[C@H](N(C)C)[C@H]2O)[C@](C)(OC)C[C@@H](C)C(=O)[C@H](C)[C@H]2N(CCCCn3cc(-c4cccc(NC(C)=O)c4)nn3)C(=O)O[C@]12C,4,64,4,,24,64,0.016,> 64,> 128,50,8,64,,,,,,,,4 - 8
CC[C@H]1OC(=O)[C@H](C)[C@@H](O[C@H]2C[C@@](C)(OC)[C@@H](O)[C@H](C)O2)[C@H](C)[C@@H](O[C@@H]2O[C@H](C)C[C@H](N(C)C)[C@H]2O)[C@](C)(O)C[C@@H](C)CN(C)[C@H](C)[C@@H](O)[C@]1(C)O [AZITHROMYCIN],,,,,25000,,,,,,,,,,,,,,,
CC[C@H]1OC(=O)[C@H](C)[C@@H](O[C@H]2C[C@@](C)(OC)[C@@H](O)[C@H](C)O2)[C@H](C)[C@@H](O[C@@H]2O[C@H](C)C[C@H](N(C)C)[C@H]2O)[C@](C)(O)C[C@@H](C)C(=O)[C@H](C)[C@@H](O)[C@]1(C)O [ERYTHROMYCIN],,,,,12000,,,,,,,,,,,,,,,
CC[C@H]1OC(=O)[C@@](C)(F)C(=O)[C@H](C)[C@@H](O[C@@H]2O[C@H](C)C[C@H](N(C)C)[C@H]2O)[C@](C)(OC)C[C@@H](C)C(=O)[C@H](C)[C@H]2N(CCCCn3cc(-c4cccc(N)c4)nn3)C(=O)O[C@]12C [SOLITHROMYCIN],2,> 32,2,,24,4,0.06 to 0.12,> 32,8,25,4,4,,,,,,,,
